Data taken from ChEMBL document CHEMBL1127163, “Anilide tertiary carbinols: A new structural class of potent potassium channel openers” (Bioorg Med Chem Lett, 1993).

Key:
Cavia porcellus [1] = organism: Cavia porcellus; assay: The compound was tested for […] activity against guinea pig detrusor (bladder) strip mildly depolarized with 15 mM KCl; assay type: functional
Cavia porcellus [2] = organism: Cavia porcellus; assay: Tested for relaxant activity of compound with 80 mM KCl; assay type: functional
Cavia porcellus [3] = organism: Cavia porcellus; assay: Tested for percent increase in efflux rate constant with 54.6 uM of compound using guinea pig detrusor; assay type: functional
Cavia porcellus [4] = organism: Cavia porcellus; assay: The compound was tested for […] activity against guinea pig vascular tissue (portal vein) strip mildly depolarized with 15 mM KCl; assay type: functional
[5] = Tested for dissociation constant of compound at PH of 7.4; assay type: ADME; settings: pH 7.4

Structure (SMILES) | IC50 (Cavia porcellus [1]) [µM] | IC50 (Cavia porcellus [2]) [µM] | IC50 (Cavia porcellus [4]) [µM] | pKa [5] | Increase (Cavia porcellus [3]) [%]
C[C@](O)(C(=O)Nc1ccc(S(=O)(=O)c2ccncc2)cc1)C(F)(F)F | 1.6 | 260 | – | – | 40
C[C@@](O)(C(=O)Nc1ccc(S(=O)(=O)c2ccncc2)cc1)C(F)(F)F | > 30 | – | – | – | –
CC1(C)Oc2ccc(C#N)cc2[C@H](N2CCCC2=O)[C@H]1O (single isomer, unassigned) [(-)-CROMAKALIM] | 0.57 | – | 0.02 | – | –

More lines, in order of falling IC50 (Cavia porcellus [1]), values ahead:

IC50 (Cavia porcellus [1]) [µM] | IC50 (Cavia porcellus [2]) [µM] | IC50 (Cavia porcellus [4]) [µM] | pKa [5] | Structure (SMILES) | Increase (Cavia porcellus [3]) [%]
3.8 | – | – | – | CC(O)(C(=O)Nc1ccc(S(=O)(=O)c2ccncc2)cc1)C(F)(F)F (racemic) | –
0.07 | – | 0.003 | 7.5 | O=C(c1ccc(NC(=O)C(O)(C(F)F)C(F)F)cc1)c1ccccn1 | –
